The values that follow come from US12539336B2, “Antibody, linkers, payload, conjugates and applications thereof” (GeneQuantum Healthcare (Suzhou) Co., Ltd., priority 2022, dated 2026).

The subject of assay [1] is Trop2-positive cells BxPC-3 and Trop2-negative HepG2 cells. Put plainly: Bystander killing in BxPC-3/HepG2 co-culture assay (BxPC-3:HepG2=2:1). The class given is cell-based, human. Conditions: effect example 1.3, conclusion. As for the experimental part: (§1) A negative control group was set: 3 mL of 45% RPMI-1640+45% DMEM+10% FBS medium was added to each well. After the treatment, the cells were moved to the incubator and incubated for 96 h. After the incubation, cells were digested, and washed once with 1×PBS, then transferred to a flow tube, and centrifuged at 2000 rpm for 3 min. The supernatant was then discarded, and the cell amount and cell viability were detected. […] The cells were washed with 1×PBS, the supernatant was discarded after centrifugation, 200 μL of 5 μg/mL human IgG Fc antibody was added, and the resulting cells were continued to incubate at 4° C. for 30 min after mixing. Finally, the cells were washed with 1×PBS, the supernatant was discarded after centrifugation, and the cells were resuspended in PBS, detected by flow cytometry and analyzed by FlowJo software.

The test system of assay [2] is Trop2-positive cells BxPC-3 and Trop2-negative cells HepG2. Put plainly: Bystander killing in BxPC-3/HepG2 co-culture assay (BxPC-3:HepG2=4:1). The format is cell-based, human. Conditions: effect example 1.1, conclusion. The method, then: as §1

DS1062a: the bystander killing effect entry in assay [1] and in assay [2] was “had bystander killing effects” throughout.
